Literature values in patent US8691302B2, “Peptide-containing seasoning” (Kikkoman Corporation, priority 2008, dated 2014).

How the values were obtained:
[1] = biological target: angiotensin converting enzyme (Homo sapiens, UniProt P12821); details: reported in Non-patent Reference 1
[2] = reported in Non-patent Reference 1

Sequence of angiotensin converting enzyme (P12821 30-1306, species assumed): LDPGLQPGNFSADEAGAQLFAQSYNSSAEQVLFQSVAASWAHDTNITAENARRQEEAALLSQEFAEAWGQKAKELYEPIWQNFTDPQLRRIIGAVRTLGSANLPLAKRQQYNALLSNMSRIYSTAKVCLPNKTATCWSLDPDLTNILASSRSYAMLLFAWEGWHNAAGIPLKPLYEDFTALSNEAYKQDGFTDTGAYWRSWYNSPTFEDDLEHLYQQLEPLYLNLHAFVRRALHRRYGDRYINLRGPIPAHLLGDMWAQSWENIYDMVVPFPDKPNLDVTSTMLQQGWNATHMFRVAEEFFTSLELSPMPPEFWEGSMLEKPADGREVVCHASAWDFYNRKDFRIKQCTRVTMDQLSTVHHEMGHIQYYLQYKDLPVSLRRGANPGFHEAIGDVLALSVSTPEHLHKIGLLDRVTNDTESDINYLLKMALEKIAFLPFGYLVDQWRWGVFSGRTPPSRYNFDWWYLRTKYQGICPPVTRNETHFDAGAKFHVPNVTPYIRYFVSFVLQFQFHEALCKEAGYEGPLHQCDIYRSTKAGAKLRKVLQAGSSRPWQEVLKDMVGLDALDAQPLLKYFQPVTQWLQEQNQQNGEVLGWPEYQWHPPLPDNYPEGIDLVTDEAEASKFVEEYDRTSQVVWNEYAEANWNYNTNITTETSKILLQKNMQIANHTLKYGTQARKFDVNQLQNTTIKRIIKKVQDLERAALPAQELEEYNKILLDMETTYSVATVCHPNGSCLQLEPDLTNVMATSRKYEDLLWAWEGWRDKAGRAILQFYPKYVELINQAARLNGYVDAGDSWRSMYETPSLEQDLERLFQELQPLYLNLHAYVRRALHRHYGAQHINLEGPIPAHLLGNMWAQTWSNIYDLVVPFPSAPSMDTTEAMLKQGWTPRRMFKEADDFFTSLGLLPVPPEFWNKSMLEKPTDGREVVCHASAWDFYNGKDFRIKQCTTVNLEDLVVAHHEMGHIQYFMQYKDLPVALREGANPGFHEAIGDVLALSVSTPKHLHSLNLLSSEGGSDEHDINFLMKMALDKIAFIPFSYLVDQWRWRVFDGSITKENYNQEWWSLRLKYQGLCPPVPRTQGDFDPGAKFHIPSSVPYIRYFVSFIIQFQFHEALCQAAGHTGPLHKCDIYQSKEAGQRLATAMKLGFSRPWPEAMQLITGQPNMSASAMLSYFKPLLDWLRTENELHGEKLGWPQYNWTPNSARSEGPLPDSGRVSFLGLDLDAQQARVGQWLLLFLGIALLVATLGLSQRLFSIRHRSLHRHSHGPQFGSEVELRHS

Substance	angiotensin converting enzyme inhibitory activity [1]	hypotensive activity [2]
Gly-Tyr	have an angiotensin converting enzyme inhibitory activity	a hypotensive activity
Ser-Tyr	have an angiotensin converting enzyme inhibitory activity	a hypotensive activity
